Measured values published in US8987195B2 (priority 2012, dated 2015).
Like-named read-outs stand apart in the source and are kept apart here.

Experiments:
[1] = system: HCV genotype 1b replicon; experiment: HCV replicon assay, genotype 1b replicon EC50; format: cell-based, Hepatitis C virus; conditions: Hepatitis C virus, HCV replicon, genotype 1b, read-out: EC50 [gt-1b]
Method in brief: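 Readout was replicon RNA copy number, by 32P-probe protection or TaqMan normalized to cellular cyclophilin A RNA, or luciferase activity for luciferase:Neo^r fusion lines. Cells were exposed to serially diluted compound for 24-48 hours without G418, then washed and lysed. EC50 derived from four-parameter fit relative to DMSO.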

[2] = target: HCV NS3/4A protease genotype 1b (Hepatitis C virus genotype 1b, UniProt P26663); experiment: HCV NS3/4A protease time-resolved fluorescence (TRF) assay, Ki against genotype 1b; format: biochemical; conditions: IC50 [gt-1b], NS3/4A protease TRF assay, genotype 1b enzyme 0.2 nM
Method in brief: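 First, protease (genotype 1b 0.2 nM, A156T 0.4 nM, genotype 3a 0.025 nM) is preincubated 30 min with inhibitor. Next, 25 nM TRF substrate starts the reaction, run 2.5 h at room temperature. Finally, europium fluorescence is read and Ki calculated from IC50.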

Row | SMILES | EC50 ([1]; K+ salt) [nM] | IC50 ([2]; K+ salt) [nM] | EC50 [1] [nM] | IC50 [2] [nM]
1 | CCc1nc2ccc(OCCCOC)cc2c2c1O[C@]1(CC2)C[C@H]2C(=O)N[C@]3(C(=O)NS(=O)(=O)C4(C)CC4)C[C@H]3/C=C\CCCCC[C@H](NC(=O)O[C@@H](C)C(C)C)C(=O)N2C1 [Example 487, (2S)-3-methylbutan-2-yl [(2R,6S,12Z,13aS,14aR,16aS)-5′-ethyl-9′-(3-methoxypropoxy)-14a-{[(1-methylcyclopropyl)sulfonyl]carbamoyl}-5,16-dioxo-1,1′,2′,5,6,7,8,9,10,11,13a,14,14a,15,16,16a-hexadecahydrospiro[cyclopropa[e]pyrrolo[1,2-a][1,4]diazacyclopentadecine-2,3′-pyrano[2,3-c]quinolin]-6-yl]carbamate] | 0.343 | 0.005 |  | 
2 | COc1ccc2nc(C(F)(F)F)c3c(c2c1)[C@](C)(O)C[C@]1(C[C@H]2C(=O)N[C@]4(C(=O)NS(=O)(=O)C5(C)CC5)C[C@H]4/C=C\CCCCC[C@H](NC(=O)OC(C)(C)C)C(=O)N2C1)O3 [Example 489, tert-butyl [(1′R,2S,6S,12Z,13aS,14aR,16aS)-1′-hydroxy-9′-methoxy-1′-methyl-14a-{[(1-methylcyclopropyl)sulfonyl]carbamoyl}-5,16-dioxo-5′-(trifluoromethyl)-1,1′,2′,5,6,7,8,9,10,11,13a,14,14a,15,16,16a-hexadecahydrospiro[cyclopropa[e]pyrrolo[1,2-a][1,4]diazacyclopentadecine-2,3′-pyrano[2,3-c]quinolin]-6-yl]carbamate] |  |  | 4.22 | 0.016
3 | CCc1nc2ccc(OC)cc2c2c1O[C@]1(CC2)C[C@H]2C(=O)N[C@]3(C(=O)NS(=O)(=O)C4(C)CC4)C[C@H]3/C=C\CCCCC[C@H](NC(=O)c3sccc3F)C(=O)N2C1 [Example 490, (2R,6S,12Z,13aS,14aR,16aS)-5′-ethyl-6-{[(3-fluorothiophen-2-yl)carbonyl]amino}-9′-methoxy-N-[(1-methylcyclopropyl)sulfonyl]-5,16-dioxo-1,1′,2′,6,7,8,9,10,11,13a,14,15,16,16a-tetradecahydrospiro[cyclopropa[e]pyrrolo[1,2-a][1,4]diazacyclopentadecine-2,3′-pyrano[2,3-c]quinoline]-14a(5H)-carboxamide] |  |  | 0.464 | 0.017
4 | CC(C)COC(=O)N[C@H]1CCCCC/C=C\[C@@H]2C[C@@]2(C(=O)NS(=O)(=O)C2(C)CC2)NC(=O)[C@@H]2C[C@]3(CCc4c(c(C(F)(F)F)nc5ccc(OCF)cc45)O3)CN2C1=O [Example 491, 2-methylpropyl [(2R,6S,12Z,13aS,14aR,16aS)-9′-(fluoromethoxy)-14a-{[(1-methylcyclopropyl)sulfonyl]carbamoyl}-5,16-dioxo-5′-(trifluoromethyl)-1,1′,2′,5,6,7,8,9,10,11,13a,14,14a,15,16,16a-hexadecahydrospiro[cyclopropa[e]pyrrolo[1,2-a][1,4]diazacyclopentadecine-2,3′-pyrano[2,3-c]quinolin]-6-yl]carbamate] | 2.53 | 0.003 |  | 
5 | CC(C)(C)OC(=O)N[C@H]1CCCCC/C=C\[C@@H]2C[C@@]2(C(=O)NS(=O)(=O)C2(C)CC2)NC(=O)[C@@H]2C[C@]3(CCc4c(c(C(F)(F)F)nc5ccc(OCCO[Si](C)(C)C(C)(C)C)cc45)O3)CN2C1=O [Example 492, tert-butyl [(2R,6S,12Z,13aS,14aR,16aS)-9′-(2-{[tert-butyl(dimethyl)silyl]oxy}ethoxy)-14a-{[(1-methylcyclopropyl)sulfonyl]carbamoyl}-5,16-dioxo-5′-(trifluoromethyl)-1,1′,2′,5,6,7,8,9,10,11,13a,14,14a,15,16,16a-hexadecahydrospiro[cyclopropa[e]pyrrolo[1,2-a][1,4]diazacyclopentadecine-2,3′-pyrano[2,3-c]quinolin]-6-yl]carbamate] |  |  | 1.39 | 0.044
6 | COc1ccc2nc(C(F)F)c3c(c2c1)CC[C@]1(C[C@H]2C(=O)N[C@]4(C(=O)NS(=O)(=O)C5(C)CC5)C[C@H]4/C=C\CCCCC[C@H](NC(=O)OC4(C)CCC4)C(=O)N2C1)O3 [Example 493, 1-methylcyclobutyl [(2R,6S,12Z,13aS,14aR,16aS)-5′-(difluoromethyl)-9′-methoxy-14a-{[(1-methylcyclopropyl)sulfonyl]carbamoyl}-5,16-dioxo-1,1′,2′,5,6,7,8,9,10,11,13a,14,14a,15,16,16a-hexadecahydrospiro[cyclopropa[e]pyrrolo[1,2-a][1,4]diazacyclopentadecine-2,3′-pyrano[2,3-c]quinolin]-6-yl]carbamate] | 0.283 | 0.003 |  | 
7 | COCC1(S(=O)(=O)NC(=O)[C@@]23C[C@H]2/C=C\CCCCC[C@H](NC(=O)OCC2(C)CC2)C(=O)N2C[C@@]4(CCc5c(c(C(F)(F)F)nc6ccc(OC)cc56)O4)C[C@H]2C(=O)N3)CC1 [Example 494, (1-methylcyclopropyl)methyl [(2R,6S,12Z,13aS,14aR,16aS)-9′-methoxy-14a-({[1-(methoxymethyl)cyclopropyl]sulfonyl}carbamoyl)-5,16-dioxo-5′-(trifluoromethyl)-1,1′,2′,5,6,7,8,9,10,11,13a,14,14a,15,16,16a-hexadecahydrospiro[cyclopropa[e]pyrrolo[1,2-a][1,4]diazacyclopentadecine-2,3′-pyrano[2,3-c]quinolin]-6-yl]carbamate] |  |  | 1.73 | 0.018
8 | COCC1(S(=O)(=O)NC(=O)[C@@]23C[C@H]2/C=C\CCCCC[C@H](NC(=O)OC2(C)CCC2)C(=O)N2C[C@@]4(CCc5c(c(C(F)(F)F)nc6ccc(OC)cc56)O4)C[C@H]2C(=O)N3)CC1 [Example 495, 1-methylcyclobutyl [(2R,6S,12Z,13aS,14aR,16aS)-9′-methoxy-14a-({[1-(methoxymethyl)cyclopropyl]sulfonyl}carbamoyl)-5,16-dioxo-5′-(trifluoromethyl)-1,1′,2′,5,6,7,8,9,10,11,13a,14,14a,15,16,16a-hexadecahydrospiro[cyclopropa[e]pyrrolo[1,2-a][1,4]diazacyclopentadecine-2,3′-pyrano[2,3-c]quinolin]-6-yl]carbamate] |  |  | 1.45 | 0.007
9 | COCC1(S(=O)(=O)NC(=O)[C@@]23C[C@H]2/C=C\CCCCC[C@H](NC(=O)OCC(C)(C)C)C(=O)N2C[C@@]4(CCc5c(c(C(F)(F)F)nc6ccc(OC)cc56)O4)C[C@H]2C(=O)N3)CC1 [Example 496, 2,2-dimethylpropyl [(2R,65,12Z,13aS,14aR,16aS)-9′-methoxy-14a-({[1-(methoxymethyl)cyclopropyl]sulfonyl}carbamoyl)-5,16-dioxo-5′-(trifluoromethyl)-1,1′,2′,5,6,7,8,9,10,11,13a,14,14a,15,16,16a-hexadecahydrospiro[cyclopropa[e]pyrrolo[1,2-a][1,4]diazacyclopentadecine-2,3′-pyrano[2,3-c]quinolin]-6-yl]carbamate] |  |  | 6.93 | 0.027
10 | COCC1(S(=O)(=O)NC(=O)[C@@]23C[C@H]2/C=C\CCCCC[C@H](NC(=O)OCC(F)F)C(=O)N2C[C@@]4(CCc5c(c(C(F)(F)F)nc6ccc(OC)cc56)O4)C[C@H]2C(=O)N3)CC1 [Example 497, 2,2-difluoroethyl [(2R,6S,12Z,13aS,14aR,16aS)-9′-methoxy-14a-({[1-(methoxymethyl)cyclopropyl]sulfonyl}carbamoyl)-5,16-dioxo-5′-(trifluoromethyl)-1,1′,2′,5,6,7,8,9,10,11,13a,14,14a,15,16,16a-hexadecahydrospiro[cyclopropa[e]pyrrolo[1,2-a][1,4]diazacyclopentadecine-2,3′-pyrano[2,3-c]quinolin]-6-yl]carbamate] |  |  | 1.94 | 0.014
11 | COc1ccc2nc(C(F)(F)F)c3c(c2c1)CC[C@]1(C[C@H]2C(=O)N[C@]4(C(=O)NS(=O)(=O)C5(C)CC5)C[C@H]4/C=C\CCCCC[C@H](NC(=O)OCC4(C)CC4)C(=O)N2C1)O3 [Example 498, (1-methylcyclopropyl)methyl [(2R,6S,12Z,13aS,14aR,16aS)-9′-methoxy-14a-{[(1-methylcyclopropyl)sulfonyl]carbamoyl}-5,16-dioxo-5′-(trifluoromethyl)-1,1′,2′,5,6,7,8,9,10,11,13a,14,14a,15,16,16a-hexadecahydrospiro[cyclopropa[e]pyrrolo[1,2-a][1,4]diazacyclopentadecine-2,3′-pyrano[2,3-c]quinolin]-6-yl]carbamate] | 0.607 | 0.009 |  | 
12 | COc1ccc2nc(C(F)(F)F)c3c(c2c1)CC[C@]1(C[C@H]2C(=O)N[C@]4(C(=O)NS(=O)(=O)C5(C)CC5)C[C@H]4/C=C\CCCCC[C@H](NC(=O)OCC(F)F)C(=O)N2C1)O3 [Example 499, 2,2-difluoroethyl [(2R,6S,12Z,13aS,14aR,16aS)-9′-methoxy-14a-{[(1-methylcyclopropyl)sulfonyl]carbamoyl}-5,16-dioxo-5′-(trifluoromethyl)-1,1′,2′,5,6,7,8,9,10,11,13a,14,14a,15,16,16a-hexadecahydrospiro[cyclopropa[e]pyrrolo[1,2-a][1,4]diazacyclopentadecine-2,3′-pyrano[2,3-c]quinolin]-6-yl]carbamate] | 0.433 | 0.004 |  | 
